Values quoted from earlier work as cited in patent US20080004223A1, “DERMATOLOGICAL USES OF THE TRIPEPTIDE MELANOCYTE STIMULATING INHIBITORY FACTOR (MIF)” (priority 2006, published 2008).
Like-named read-outs stand apart in the source and are kept apart here. Residues, ends and D or L forms follow the SMILES beside them. No end group written: not given here.

What was measured:
[1] = rats; Petersson et al. 2001
[2] = rats; Pahdy et al. 2005
[3] = rats; Hayashi et al. 1983, 1984
[4] = water wheel test; Kastin et al. 1984
[5] = rats; Kastin et al. 1985
[6] = mice, modified Dopa test; U.S. Pat. No. 3,708,593
[7] = rats; Petersson et al. 2004
[8] = U.S. Pat. No. 4,278,595

| metabolism subsequent to administration [8] | Compound | carrageenan induced inflammation [1] | latex-induced inflammatory hyperalgesia [2] | effect on passive avoidance [3] | antidepressant activity [4] | inhibition of the analgesic effect of morphine [5] | antidepressant activity [6] | oxytocin levels [7] |
| --- | --- | --- | --- | --- | --- | --- | --- | --- |
| – | CC[C@H](C)[C@@H]1NC(=O)[C@H](Cc2ccc(O)cc2)NC(=O)[C@@H](N)CSSC[C@@H](C(=O)N2CCC[C@H]2C(=O)N[C@@H](CC(C)C)C(=O)NCC(N)=O)NC(=O)[C@H](CC(N)=O)NC(=O)[C@H](CCC(N)=O)NC1=O [oxytocin] | decreases carrageenan induced inflammation | inhibit Calotropis procera latex-induced inflammatory hyperalgesia | – | – | – | – | – |
| – | Tyr-Pro-Leu-Gly-NH2 (YPLG-NH2) [Tyr-MIF-1, brain derived peptide] | – | – | shown to affect passive avoidance | active as antidepressants | active in inhibiting the analgesic effect of morphine | – | – |
| rapidly metabolized | CC(C)C[C@H](NC(=O)[C@@H]1CCCN1)C(=O)NCC(N)=O [MIF, prolyl-leucyl-glycinamide] (H-Pro-Leu-Gly-NH2) | – | – | – | active as antidepressants | – | exhibits antidepressant activity | decreases oxytocin levels |
